Test results as given in patent US20220062296A1, “COMBINATIONS OF GABAA ALPHA 5 AGONISTS AND SV2A INHIBITORS AND METHODS OF USING IN THE TREATMENT OF COGNITIVE IMPAIRMENT” (AGENEBIO, INC., priority 2020, published 2022).

Assays:
[1] = test system: reelin in Entorhinal Cortex (EC2); test: Reelin mRNA in situ hybridization in entorhinal cortex (EC2); settings: 10 mg/kg/day for 28 days; vs AI-VEH p=0.033
somatostatin in DG hilus = test: Somatostatin immunohistochemistry, SOM-immunoreactive neurons in DG hilus; format: in vivo, rat; settings: 10 mg/kg/day, four weeks, osmotic mini-pumps; AI-LEV vs AI-VEH p<0.01
Text: Tissue was labeled with anti-SOM antiserum (Santa Cruz Biotechnology; cat. no. SC7819-P) using an established immunoperoxidase protocol and tissue sections were processed concurrently to minimize inter-replication variability (Haberman et al., 2009). The anti-SOM antiserum can detect somatostatin. Briefly, sections were washed in 0.1M phosphate-buffered saline (PBS) to remove cryoprotectant, and endogenous peroxidases were quenched in 0.3% H202 in PBS. After additional PBS washes, sections were blocked in 5% normal horse serum in PBS with 0.3% Triton. Sections were then incubated with primary antibody at a dilution of 1:1600 in PBS containing 0.15% Triton and 3% normal serum for 72 hours at 4° C. with agitation. […] The secondary antibody was detected with avidin-biotin complex (ABC Elite; Vector Laboratories Inc., Burlingame, Calif.) and the avidin-biotin complex was visualized with nickel-enhanced diaminobenzadine (Vector Laboratories Inc., Burlingame, Calif.). […]
Interneuron quantification was performed using a Zeiss Axioplan 2 microscope equipped with a motorized stage. […] Neuron counts were analyzed as the total number of hilar interneurons per hippocampal section for each rat.

aged-impaired (AI) rats = test: Radial Arm Maze (RAM) task with one-hour delay, levetiracetam; format: in vivo, rat; settings: for effective in reducing the number of errors in the radial arm maze: levetiracetam on its own
Method: The effects of levetiracetam on the spatial memory retention of aged-impaired (AI) rats were assessed in a Radial Arm Maze (RAM) behavioral task using vehicle control and five different dosage levels of levetiracetam (1.25 mg/kg/day, 2.5 mg/kg/day, 5 mg/kg/day, 10 mg/kg/day and 20 mg/kg/day). RAM behavioral tasks were performed on ten AI rats. All six treatment conditions were tested on all ten rats, as described above for the MWM test. The RAM apparatus used consisted of eight equidistantly spaced arms. An elevated maze arm (7 cm width×75 cm length) projected from each facet of an octagonal center platform (30 cm diameter, 51.5 cm height). […] A food well (4 cm diameter, 2 cm deep) was located at the distal end of each arm. Froot Loops™ (Kellogg Company) were used as rewards. […] Numerous extra maze cues surrounding the apparatus were also provided. The AI rats were initially subjected to a pre-training test (Chappell et al. Neuropharmacology 37: 481-487, 1998). […] In the habituation phase, rats were familiarized to the maze for an 8-minute session on four consecutive days. In each of these sessions food rewards were scattered on the RAM, initially on the center platform and arms and then progressively confined to the arms. After this habituation phase, a standard training protocol was used, in which a food pellet was located at the end of each arm. Rats received one trial each day for 18 days. Each daily trial terminated when all eight food pellets had been obtained or when either 16 choices were made or 15 minutes had elapsed. After completion of this training phase, a second training phase was carried out in which the memory demand was increased by imposing a brief delay during the trial. At the beginning of each trial, three arms of the eight-arm maze were blocked. Rats were allowed to obtain food on the five arms to which access was permitted during this initial ‘information phase’ of the trial. Rats were then removed from the maze for 60 seconds, during which time the barriers on the maze were removed, thus allowing access to all eight arms. Rats were then placed back onto the center platform and allowed to obtain the remaining food rewards during this ‘retention test’ phase of the trial. The identity and configuration of the blocked arms varied across trials. The number of “errors” the AI rats made during the retention test phase was tracked. An error occurred in the trial if the rats entered an arm from which food had already been retrieved in the pre-delay component of the trial, or if it re-visited an arm in the post-delay session that had already been visited. After completion of the pre-training test, rats were subjected to trials with more extended delay intervals, i.e., a one-hour delay, between the information phase (presentation with some blocked arms) and the retention test (presentation of all arms). During the delay interval, rats remained off to the side of the maze in the testing room, on carts in their individual home cages. […] Injections were given every other day with intervening washout days. Each AI rat was treated with all six conditions within 23 days of testing. To counterbalance any potential bias, drug effect was assessed using ascending-descending dose series, i.e., the dose series was given first in an ascending order and then repeated in a descending order. Therefore, each dose had two determinations. Parametric statistics (paired t-tests) was used to compare the retention test performance of the AI rats in the one-hour delay version of the RAM task in the context of different doses of levetiracetam and vehicle control (see FIG. 3).

aMCI subjects = test: Neuropsychological tests (Buschke Selective Reminding, Benton Visual Retention, Verbal Paired Associates); format: in vivo, human; settings: levetiracetam 125 mg twice a day for two weeks
Text: All participants undergo neuropsychological evaluation at the time of assessment for treatment efficacy (Visits 1 and 2), as well as at the Baseline Visit. The evaluation occurs outside of the scanner and includes the Buschke Selective Reminding Test (Buschke and Fuld, 1974) and the Verbal Paired Associates subtest, the Logical Memory subtest, the Visual Reproduction subtest of the Wechsler Memory Scale-Revised (WMS-R) (Wechsler, 1997), and the Benton Visual Retention Test, as these tasks are particularly sensitive to medial temporal lobe function and early memory problems (Marquis et al., 2002 and Masur et al., 1994). Additionally, subjects are asked to complete tests of more general cognitive function such as tests to assess general mental status, executive function, attention and general naming ability. All neuropsychological tests are administered by a trained research assistant during a 60-minute session. As the three neuropsychological assessments in this study occur within a time period of 8 weeks, different versions of the neuropsychological tests are used to minimize test specific practice effects. Breaks are provided to the subject as needed.

CC[C@@H](C(N)=O)N1CCCC1=O [levetiracetam, (2S)-2-(2-oxopyrrolidin-1-yl)butanamide]
reelin mRNA expression in the lateral entorhinal cortex [1]: significantly increased the expression of reelin | levels of somatostatin in DG hilus (SOM-immunoreactive hilar neurons) (somatostatin in DG hilus): restores the levels of somatostatin | effective doses of levetiracetam in the animal model (aged-impaired (AI) rats; AI rats): 5 to 10 mg/kg | average no. of errors ± standard error of the mean (SEM) (aged-impaired (AI) rats; levetiracetam 5 mg/kg/day i.p., one-hour delay, p=0.057 vs vehicle): 0.75±0.32 | average no. of errors ± SEM (aged-impaired (AI) rats; levetiracetam 10 mg/kg/day i.p., one-hour delay, p=0.042 vs vehicle): 0.80±0.27 | performance of AI rats in the radial maze task (aged-impaired (AI) rats; levetiracetam 20 mg/kg): fails to improve the performance | effective in reducing the number of errors in the radial arm maze (aged-impaired (AI) rats; 1.25 mg/kg): not at 1.25 mg/kg or 2.5 mg/kg | effective in reducing the number of errors in the radial arm maze (aged-impaired (AI) rats; 2.5 mg/kg): not at 1.25 mg/kg or 2.5 mg/kg | Benton Visual Retention Test performance (aMCI subjects): fail to rescue performance | Buschke Selective Reminding Test-Delayed Recall performance (aMCI subjects): fail to rescue performance | Verbal Paired Associates Test-Delayed Recall performance (aMCI subjects): fail to rescue performance | Verbal Paired Associates Test-Recognition performance (aMCI subjects): fail to rescue performance
